Data reported in paper PMC8191290, “Substrate specificities and reaction kinetics of the yeast oligosaccharyltransferase isoforms” (The Journal of Biological Chemistry, 2021).
Like-named read-outs stand apart in the source and are kept apart here.

Target: T1, OST3 complex (Saccharomyces cerevisiae, UniProt P39007)
T1 construct: were purified separately from strains expressing only one type of complex; made in house; host or cells: Saccharomyces cerevisiae, BY4742-derived strain ost6::LEU2MX6 OST4-1D4::kanMX6 YEp352-OST3
Experiment: In vitro glycosylation assay, kinetic parameters for acceptor peptides, OST3 complex
Format: biochemical
Settings: for Km: 10 mM MnCl2, pH 7.5, 30 °C, UPLC TAMRA fluorescence, read-out: KM (apparent); for Km / kcat (apparent): n = 3; for kcat (apparent): 30 °C
Experimental: Figure 2 In vitro glycosylation assay for OST activity and peptide sequence preferences.A, schematic representation of the in vitro reaction setup for yeast OST activity. The peptide substrate containing the glycosylation sequon N-X-(S/T) is labeled with the TAMRA fluorophore at the N-terminus. Incubation with OST, synthetic LLO, and a divalent metal ion (Mn^2+preferred) results in the transfer of the sugar moiety (two GlcNAcs, blue squares) from the LLO to the fluorescently labeled peptide, yielding a glycopeptide product. B, measurement and analysis of the in vitro assay shown in A. Fluorescently labeled peptide (P) substrate and glycopeptide (GP) product are separated by reverse-phase chromatography using UPLC. The glycopeptide elutes earlier than the peptide and amounts of glycopeptide are quantified at different reaction time points by peak integration. C, quantification of kinetic parameters for synthetic peptide TAMRA-DANYTK. Reactions were performed with 2.8 μg purified extract containing OST3 complex before size-exclusion chromatography (approximately 1 μM OST3 complex), 150 μM LLO C20, and varying concentrations of the peptide. Glycopeptide product was measured by UPLC and turnover rates were determined by linear regression of the initial phase of the reaction and taking into account the enzyme concentration. The mean of three reactions is shown and the data were fitted by nonlinear regression according to the Michaelis–Menten formula (R^2 = 0.9803) using Prism. Error bars indicate standard deviations from the mean (n = 3). D, screening glycosylatable peptides derived from highly glycosylated yeast sequences. Reactions were performed with 0.4 μM purified OST3 complex, 150 μM LLO C20, 25 μM TAMRA-DANYTK, and 25 μM unlabeled competitor peptide. TAMRA-DANYTK glycopeptide product formed after 30 min was measured by UPLC and % inhibition was determined relative to a control reaction containing no unlabeled competitor peptide. E, quantification of kinetic parameters for synthetic peptide TAMRA-YANATS. Reactions were performed with 0.1 μM purified OST3 complex, 100 μM LLO C20, and varying concentrations of the peptide. Turnover rates were determined as in C. The mean of three reactions is shown and the data were fitted by nonlinear regression according to the Michaelis–Menten formula (R^2 = 0.9794) using Prism. Error bars indicate standard deviations from the mean (n = 3). P, phosphate; TAMRA, tetramethylrhodamine.
TAMRA-labeled peptides with 5-TAMRA at the N-terminus and an amide group at the C-terminus were synthesized by WatsonBio Sciences. Unlabeled peptides (Table S1) were synthesized by Genscript Corp. and were designed so that the asparagine of the glycosylation sequon was in the middle (except for Peptide 8). Lyophilized peptides were dissolved in dimethyl sulfoxide (DMSO), unless specified otherwise, to a 3 mM stock solution and further diluted in ddH2O for reactions.
Reactions were performed in a total volume of 10 μl containing the specified amount of TAMRA-labeled peptide, synthetic LLO analog, 10 mM MnCl2, and purified OST after size-exclusion chromatography in purification buffer (50 mM Hepes, pH 7.5, 150 mM NaCl, 1 mM MgCl2, 1 mM MnCl2, 10% (v/v) glycerol, 0.03% (w/v) DDM, and 0.006% (w/v) CHS). The concentration of OST was calculated using the molecular weight of 280 kDa. The reaction mixture was preincubated at 30 °C for 5 min before adding the peptide to start the reaction that proceeded at 30 °C. Time points were taken such that the reaction was in the linear phase. At each time point, 1 μl reaction mixture was taken and the reaction was stopped by dilution in stop solution (0.1% FA in 10% ACN, 10 mM KPO4 pH 8.0) such that the final peptide concentration was 2 μM.
Samples were analyzed by reverse-phase chromatography using a UPLC Dionex UltiMate 3000 with an Accucore 150-C18 100 × 2.1 mm 2.6 μm column (Thermo Fisher Scientific). […]

[1] = 0.1 μM purified OST3 complex, 100 μM LLO C20, 10–500 μM peptide

Substance	kcat/KM (2.8 μg purified extract (approx. 1 μM OST3 complex), 150 μM LLO C20)	Km (2.8 μg purified extract (approx. 1 μM OST3 complex, before SEC), 150 μM LLO C20, 10–400 μM peptide, saturation not reached, listed as TAMRA-DANYTK-NH2)	Km (2.8 μg purified extract (approx. 1 μM OST3 complex, before SEC), 150 μM LLO C20, 10–400 μM peptide, saturation not reached)	kcat (apparent) (2.8 μg purified extract (approx. 1 μM OST3 complex, before SEC), 150 μM LLO C20, 10–400 μM peptide)	kcat/KM (0.1 μM purified OST3 complex, 100 μM LLO C20)	Km [1]	kcat (apparent) [1]	specificity relative to TAMRA-DANYTK (OST3 complex)	fold lower apparent KM (OST3 complex, relative to TAMRA-DANYTK)
TAMRA-DANYTK-NH2 [fluorescently labeled hexapeptide TAMRA-DANYTK-NH2 as the acceptor peptide, reference compound]	0.02 min^-1 μM^−s1	~200 µM	201 ± 51.3 µM	0.065 ± 0.01 s⁻¹					
TAMRA-YANATS [shorter version of Peptide 5 of only six amino acid residues (TAMRA-YANATS)]					0.26 min^-1 μM^−s1	55.6 ± 6.5 µM	0.242 ± 0.012 s⁻¹	over ten times more specific	3.5 fold
